The values below come from patent US7935832B2, “Pyrrole and isoindole carboxamide derivatives as P2X7 modulators” (Glaxo Group Limited, priority 2007, dated 2011).

A value given as a limit tells only on which side of the number the result lay.

The assay deals with T1, human recombinant P2X7 receptors (Homo sapiens, UniProt Q99572).
T1 construct: expressed in transfected cells; host or cells: HEK293
T1 sequence (Q99572 1-595): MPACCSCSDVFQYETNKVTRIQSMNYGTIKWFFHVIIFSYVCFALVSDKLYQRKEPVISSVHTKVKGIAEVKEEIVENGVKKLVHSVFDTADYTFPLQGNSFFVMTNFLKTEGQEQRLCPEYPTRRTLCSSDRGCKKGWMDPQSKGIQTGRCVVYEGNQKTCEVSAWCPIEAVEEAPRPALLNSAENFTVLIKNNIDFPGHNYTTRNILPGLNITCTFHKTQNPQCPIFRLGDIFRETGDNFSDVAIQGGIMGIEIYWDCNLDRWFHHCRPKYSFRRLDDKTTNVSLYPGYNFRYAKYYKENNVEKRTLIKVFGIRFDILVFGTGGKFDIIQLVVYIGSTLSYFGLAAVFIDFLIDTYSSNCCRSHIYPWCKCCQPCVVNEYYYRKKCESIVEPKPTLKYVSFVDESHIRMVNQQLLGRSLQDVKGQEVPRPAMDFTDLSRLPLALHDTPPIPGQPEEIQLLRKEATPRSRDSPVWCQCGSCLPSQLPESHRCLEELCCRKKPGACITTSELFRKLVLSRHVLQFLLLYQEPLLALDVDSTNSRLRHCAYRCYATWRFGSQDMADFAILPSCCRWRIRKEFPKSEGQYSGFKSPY
Nature of the assay: Ethidium Accumulation Assay. The assay is classed as cell-based. To be noted: HEK293 cells expressing human recombinant P2X7; 1 mM ATP, 100 μM ethidium; 30 min preincubation at room temperature; read-out: Antagonist pIC50 for blocking ATP responses (cellular accumulation of ethidium) (converted). The method, then:
Studies were performed using NaCl assay buffer of the following composition (in mM): 140 mM NaCl, HEPES 10, N-methyl-D-glucamine 5, KCl 5.6, D-glucose 10, CaCl2 0.5 (pH 7.4). HEK293 cells, expressing human recombinant P2X7 receptors, were grown in poly-L-lysine pretreated 96 well plates for 18-24 h. (The cloning of the human P2X7 receptor is described in U.S. Pat. No. 6,133,434). The cells were washed twice with 350 μl of assay buffer before addition of 50 μl of antagonist. The cells were then incubated at room temperature (19-21° C.) for 30 min before addition of ATP and ethidium (100 μM final assay concentration). The ATP concentration was chosen to be close to the EC80 for the receptor type and was 1 mM for studies on the human P2X7 receptor. Incubations were continued for 8 or 16 min and were terminated by addition of 25 μl of 1.3M sucrose containing 5 mM of the P2X7 receptor antagonist reactive black 5 (Aldrich). Cellular accumulation of ethidium was determined by measuring fluorescence (excitation wavelength of 530 nm and emission wavelength of 620 nm) from below the plate with a Canberra Packard Fluorocount (Pangbourne, UK). Antagonist pIC50 values for blocking ATP responses were determined using iterative curve fitting techniques.
For `CC1=CC(=O)N(C2CC2)C1C(=O)NCc1ccc(Cl)cc1Cl` (stereo not drawn) [Example 1, 1-cyclopropyl-N-[(2,4-dichlorophenyl)methyl]-3-methyl-5-oxo-2,5-dihydro-1H-pyrrole-2-carboxamide], the IC50 was at most 631 nM. Under `CCN1C(=O)c2ccccc2C1C(=O)NCc1ccc(Cl)cc1Cl` (stereo not drawn) [Example 2, N-[(2,4-dichlorophenyl)methyl]-2-ethyl-3-oxo-2,3-dihydro-1H-isoindole-1-carboxamide] stands at most 631 nM; under `CCN1C(=O)c2ccccc2C1C(=O)NCc1cccc(C(F)(F)F)c1Cl` (stereo not drawn) [Example 4, N-{[2-chloro-3-(trifluoromethyl)phenyl]methyl}-2-ethyl-3-oxo-2,3-dihydro-1H-isoindole-1-carboxamide], at most 126 nM; under `CN1C(=O)c2ccccc2C1C(=O)NCc1ccc(Cl)cc1Cl` (stereo not drawn) [Example 5, N-[(2,4-dichlorophenyl)methyl]-2-methyl-3-oxo-2,3-dihydro-1H-isoindole-1-carboxamide], at most 126 nM.

For `CN1C(=O)c2ccccc2C1C(=O)NCc1ccc(F)cc1Cl` (stereo not drawn) [Example 6, N-[(2-chloro-4-fluorophenyl)methyl]-2-methyl-3-oxo-2,3-dihydro-1H-isoindole-1-carboxamide], the IC50 is at most 631 nM. Take `CN1C(=O)c2ccccc2C1C(=O)NCc1cccc(C(F)(F)F)c1Cl` (stereo not drawn) [Example 7, N-{[2-chloro-3-(trifluoromethyl)phenyl]methyl}-2-methyl-3-oxo-2,3-dihydro-1H-isoindole-1-carboxamide]: the IC50 is at most 126 nM.
